Measurements as given in the NIST ThermoML archive (doi:10.1021/je700670k).
Numbers after ± are expanded uncertainties.

Conditions: Liquid, Vibrating tube method

CCC[n+]1cccc(C)c1.O=S(=O)([N-]S(=O)(=O)C(F)(F)F)C(F)(F)F
mass density [kg/m3]
Conditions	293.15 K	303.15 K	313.15 K	323.15 K	333.15 K	353.15 K	393.15 K
100 kPa	1454.9 ± 12	1444.4 ± 12	1433.9 ± 12	1423.7 ± 12	1413.6 ± 12	1393.7 ± 12	1354.8 ± 12
1000 kPa	1455.6 ± 12	1445.3 ± 12	1434.8 ± 12	1424.5 ± 12	1414.4 ± 12	1394.6 ± 12	1355.8 ± 12
2000 kPa	1456.4 ± 12	1446.1 ± 12	1435.6 ± 12	1425.3 ± 12	1415.3 ± 12	1395.5 ± 12	1356.9 ± 12
3000 kPa	1457.1 ± 12	1446.8 ± 12	1436.4 ± 12	1426.1 ± 12	1416.1 ± 12	1396.4 ± 12	1357.9 ± 12
4000 kPa	1457.9 ± 12	1447.6 ± 12	1437.3 ± 12	1427 ± 12	1417 ± 12	1397.4 ± 12	1359 ± 12
5000 kPa	1458.7 ± 12	1448.4 ± 12	1438 ± 12	1427.8 ± 12	1417.8 ± 12	1398 ± 12	1360 ± 12
7500 kPa	1460.5 ± 12	1450.3 ± 12	1440 ± 12	1429.9 ± 12	1419.8 ± 12	1400.2 ± 12	1362.5 ± 12
10000 kPa	1462.4 ± 12	1452.2 ± 12	1441.9 ± 12	1431.9 ± 12	1421.9 ± 12	1402.5 ± 12	1365 ± 12
15000 kPa	1466.1 ± 12	1455.9 ± 12	1445.7 ± 12	1435.7 ± 12	1425.9 ± 12	1406.8 ± 12	1369.7 ± 12
20000 kPa	1469.6 ± 12	1459.6 ± 12	1449.5 ± 12	1439.5 ± 12	1429.9 ± 12	1411 ± 12	1374.3 ± 12
25000 kPa	1473.1 ± 12	1463.1 ± 12	1453.1 ± 12	1443.3 ± 12	1433.7 ± 12	1415.1 ± 12	1378.8 ± 12
30000 kPa	1476.5 ± 12	1466.6 ± 12	1456.7 ± 12	1446.9 ± 12	1437.4 ± 12	1419 ± 12	1383.2 ± 12
35000 kPa	1479.8 ± 12	1470 ± 12	1460.3 ± 12	1450.5 ± 12	1441.1 ± 12	1422.9 ± 12	1387.5 ± 12
